PubChem BioAssay (NCI)
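All cell lines were grown in 96-well plates and treated with compound for 48 hours. TGI marks complete inhibition of growth.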

Columns and labels:
Assay in all cases: NCI tumour cell line growth inhibition, 48 h
TK-10 renal = test system: TK-10 renal
HCT-116 colon = test system: HCT-116 colon
DMS 273 small cell lung = test system: DMS 273 small cell lung
A549 NSCLC = test system: A549 NSCLC
SNB-19 CNS = test system: SNB-19 CNS
SF-295 CNS = test system: SF-295 CNS
RPMI-8226 leukemia = test system: RPMI-8226 leukemia
COLO 205 colon = test system: COLO 205 colon
MOLT-4 leukemia = test system: MOLT-4 leukemia
T-47D breast = test system: T-47D breast
OVCAR-4 ovarian = test system: OVCAR-4 ovarian
BT-549 breast = test system: BT-549 breast
SF-268 CNS = test system: SF-268 CNS
U251 CNS = test system: U251 CNS
SF-539 CNS = test system: SF-539 CNS
UACC-62 melanoma = test system: UACC-62 melanoma
HOP-62 NSCLC = test system: HOP-62 NSCLC
PC-3 prostate = test system: PC-3 prostate
K-562 leukemia = test system: K-562 leukemia
HS 578T breast = test system: HS 578T breast
P388 leukemia = test system: P388 leukemia
HT29 colon = test system: HT29 colon
MDA-N = test system: MDA-N
RXF 393 renal = test system: RXF 393 renal
A498 renal = test system: A498 renal
SR leukemia = test system: SR leukemia
UO-31 renal = test system: UO-31 renal
UACC-257 melanoma = test system: UACC-257 melanoma
CCRF-CEM leukemia = test system: CCRF-CEM leukemia
NCI-H460 lung = test system: NCI-H460 lung
SNB-78 CNS = test system: SNB-78 CNS
HOP-18 NSCLC = test system: HOP-18 NSCLC
NCI-H226 lung = test system: NCI-H226 lung
HOP-92 NSCLC = test system: HOP-92 NSCLC
OVCAR-8 ovarian = test system: OVCAR-8 ovarian
KM12 colon = test system: KM12 colon
NCI-H522 lung = test system: NCI-H522 lung
SK-MEL-28 melanoma = test system: SK-MEL-28 melanoma
HCC-2998 colon = test system: HCC-2998 colon
DLD-1 colon = test system: DLD-1 colon
MDA-MB-231 breast = test system: MDA-MB-231 breast
OVCAR-5 ovarian = test system: OVCAR-5 ovarian
MCF7 breast = test system: MCF7 breast
M14 melanoma = test system: M14 melanoma
MDA-MB-435 = test system: MDA-MB-435
SW-620 colon = test system: SW-620 colon
NCI/ADR-RES ovarian = test system: NCI/ADR-RES ovarian
HCT-15 colon = test system: HCT-15 colon
SNB-75 CNS = test system: SNB-75 CNS
DU-145 prostate = test system: DU-145 prostate
KM20L2 colon = test system: KM20L2 colon
MALME-3M melanoma = test system: MALME-3M melanoma
SK-MEL-5 melanoma = test system: SK-MEL-5 melanoma
SN12C renal = test system: SN12C renal
IGROV1 ovarian = test system: IGROV1 ovarian
P388/ADR leukemia = test system: P388/ADR leukemia
LOX IMVI melanoma = test system: LOX IMVI melanoma
OVCAR-3 ovarian = test system: OVCAR-3 ovarian
SK-OV-3 ovarian = test system: SK-OV-3 ovarian
CAKI-1 renal = test system: CAKI-1 renal
EKVX NSCLC = test system: EKVX NSCLC
SN12K1 renal = test system: SN12K1 renal
HL-60(TB) leukemia = test system: HL-60(TB) leukemia
ACHN renal = test system: ACHN renal
786-0 renal = test system: 786-0 renal
NCI-H23 lung = test system: NCI-H23 lung
SK-MEL-2 melanoma = test system: SK-MEL-2 melanoma

O=S(=O)(O)O
TGI (TK-10 renal): 2160 µM | TGI (HCT-116 colon): 914 µM | TGI (DMS 273 small cell lung): 540 µM | TGI (A549 NSCLC): 1870 µM | TGI (SNB-19 CNS): 2580 µM | TGI (SF-295 CNS): 2060 µM | TGI (RPMI-8226 leukemia): 2500 µM | TGI (COLO 205 colon): 2210 µM | TGI (MOLT-4 leukemia): 1680 µM | TGI (T-47D breast): 1770 µM | TGI (OVCAR-4 ovarian): 2080 µM | TGI (BT-549 breast): 2680 µM | TGI (SF-268 CNS): 1980 µM | TGI (U251 CNS): 1480 µM | TGI (SF-539 CNS): 1840 µM | TGI (UACC-62 melanoma): 1940 µM | TGI (HOP-62 NSCLC): 1070 µM | TGI (PC-3 prostate): 1190 µM | TGI (K-562 leukemia): 1230 µM | TGI (HS 578T breast): 2240 µM | TGI (P388 leukemia): > 1820 µM | TGI (HT29 colon): 1450 µM | TGI (MDA-N): 360 µM | TGI (RXF 393 renal): 1500 µM | TGI (A498 renal): 1780 µM | TGI (SR leukemia): > 1810 µM | TGI (UO-31 renal): 1770 µM | TGI (UACC-257 melanoma): 1990 µM | TGI (CCRF-CEM leukemia): 684 µM | TGI (NCI-H460 lung): 1210 µM | TGI (SNB-78 CNS): 2930 µM | TGI (HOP-18 NSCLC): 1680 µM | TGI (NCI-H226 lung): 2390 µM | TGI (HOP-92 NSCLC): 2010 µM | TGI (OVCAR-8 ovarian): 1830 µM | TGI (KM12 colon): 2150 µM | TGI (NCI-H522 lung): 1770 µM | TGI (SK-MEL-28 melanoma): 1700 µM | TGI (HCC-2998 colon): 2150 µM | TGI (DLD-1 colon): > 3000 µM | TGI (MDA-MB-231 breast): > 1900 µM | TGI (OVCAR-5 ovarian): 1700 µM | TGI (MCF7 breast): 1410 µM | TGI (M14 melanoma): 1580 µM | TGI (MDA-MB-435): 634 µM | TGI (SW-620 colon): 1030 µM | TGI (NCI/ADR-RES ovarian): 2360 µM | TGI (HCT-15 colon): 1820 µM | TGI (SNB-75 CNS): 2290 µM | TGI (DU-145 prostate): 1620 µM | TGI (KM20L2 colon): 2280 µM | TGI (MALME-3M melanoma): 2050 µM | TGI (SK-MEL-5 melanoma): 2200 µM | TGI (SN12C renal): 1450 µM | TGI (IGROV1 ovarian): 2170 µM | TGI (P388/ADR leukemia): > 3000 µM | TGI (LOX IMVI melanoma): 542 µM | TGI (OVCAR-3 ovarian): 1770 µM | TGI (SK-OV-3 ovarian): 2650 µM | TGI (CAKI-1 renal): 1870 µM | TGI (EKVX NSCLC): 2470 µM | TGI (SN12K1 renal): 1380 µM | TGI (HL-60(TB) leukemia): 1300 µM | TGI (ACHN renal): 1550 µM | TGI (786-0 renal): 1490 µM | TGI (NCI-H23 lung): 1580 µM | TGI (SK-MEL-2 melanoma): 1450 µM
